According to patent US10738028B2, “Spiro three-membered ring, spiro five-membered ring peptide deformylase inhibitor and use thereof in antibacteria and anti-tumor” (priority 2016, dated 2020):
Read-outs that look alike come from different tables or passages of the source.

How the values were obtained:
Assay type in all cases: cell-based
[1] = tested on: Enterococcus faecalis (EFA); test: MIC, two-fold agar dilution (CLSI), clinical isolates
Outline: (§1)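 Susceptibility was tested using CLSI two-fold agar dilution against the strains examined.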

[2] = tested on: Enterococcus faecium (EFM); test: as above
Outline: as §1

[3] = tested on: Escherichia coli (including ESBLs, non-ESBLs); test: as above; details: for Anti-bacterial activity (MIC), strain ECO+ 15-1: clinical isolate ECO+ 15-1; for Anti-bacterial activity (MIC), strain ECO+ 15-2: clinical isolate ECO+ 15-2; for Anti-bacterial activity (MIC), strain ECO+ 15-3: clinical isolate ECO+ 15-3; for Anti-bacterial activity (MIC), strain ECO+ 15-4: clinical isolate ECO+ 15-4; for Anti-bacterial activity (MIC), strain ECO− 15-1: clinical isolate ECO− 15-1; for Anti-bacterial activity (MIC), strain ECO− 15-2: clinical isolate ECO− 15-2; for Anti-bacterial activity (MIC), strain ECO− 15-3: clinical isolate ECO− 15-3; for Anti-bacterial activity (MIC), strain ECO− 15-4: clinical isolate ECO− 15-4
Outline: as §1

[4] = tested on: Moraxella catarrhalis (BCA); test: as above
Outline: as §1

[5] = tested on: Streptococcus pneoumoniae (SPN); test: as above
Outline: as §1

[6] = tested on: methicillin-resistant Staphylococcus aureus (MRSA); test: as above; details: for Anti-bacterial activity (MIC), strain MRSA 15-1: clinical isolate MRSA 15-1; for Anti-bacterial activity (MIC), strain MRSA 15-2: clinical isolate MRSA 15-2; for Anti-bacterial activity (MIC), strain MRSA 15-3: clinical isolate MRSA 15-3; for Anti-bacterial activity (MIC), strain MRSA 15-4: clinical isolate MRSA 15-4
Outline: as §1

[7] = tested on: methicillin-resistant Staphylococcus epidermidis (MRSE); test: as above; details: for Anti-bacterial activity (MIC), strain MRSE 15-1: clinical isolate MRSE 15-1; for Anti-bacterial activity (MIC), strain MRSE 15-2: clinical isolate MRSE 15-2; for Anti-bacterial activity (MIC), strain MRSE 15-3: clinical isolate MRSE 15-3; for Anti-bacterial activity (MIC), strain MRSE 15-7: clinical isolate MRSE 15-7
Outline: as §1

[8] = tested on: methicillin-sensitive Staphylococcus aureus (MSSA); test: as above; details: for Anti-bacterial activity (MIC), strain MSSA 15-3: clinical isolate MSSA 15-3; for Anti-bacterial activity (MIC), strain MSSA 15-4: clinical isolate MSSA 15-4; for Anti-bacterial activity (MIC), strain MSSA 15-5: clinical isolate MSSA 15-5; for Anti-bacterial activity (MIC), strain MSSA 15-6: clinical isolate MSSA 15-6
Outline: as §1

[9] = tested on: methicillin-sensitive Staphylococcus epidermidis (MSSE); test: as above; details: for Anti-bacterial activity (MIC), strain MSSE 15-3: clinical isolate MSSE 15-3; for Anti-bacterial activity (MIC), strain MSSE 15-4: clinical isolate MSSE 15-4; for Anti-bacterial activity (MIC), strain MSSE 15-5: clinical isolate MSSE 15-5; for Anti-bacterial activity (MIC), strain MSSE 15-6: clinical isolate MSSE 15-6
Outline: as §1

[10] = tested on: HCT-116 colorectal cancer cell line; test: CCK-8 proliferation inhibition; details: concentration of 30 μM, 72 hours, CCK-8; for inhibition at 30 µM: Homo sapiens, HCT-116, 72 h
Outline: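 2000 cells/well, McCoy's 5A + 10% newborn bovine serum; overnight attach, 37° C./5% CO2. Cpd from DMSO stock diluted in medium, 72 h. Readout: CCK-8 (1:10). Ctrl 1‰ DMSO.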

[11] = tested on: A549 lung cancer cell line; test: CCK-8 proliferation inhibition; details: concentration of 30 μM; for inhibition at 30 µM: Homo sapiens, A549, 72 h
Outline: (§2)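 Plating at 2000 cells/well, then incubation overnight at 37° C. Next, a range of compound concentrations for 72 hours (control 1‰ DMSO). Finally, medium decanted and CCK-8 diluted 1:10 added.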

[12] = tested on: BEL-7402 liver cancer cell line; test: CCK-8 proliferation inhibition; details: concentration of 30 μM; for Inhibition of proliferation, Liver cancer BEL-7402: 72 hours, 30 µM
Outline: as §2

[13] = tested on: MGC-803 gastric cancer cell line; test: CCK-8 proliferation inhibition; details: concentration of 30 μM; for inhibition at 30 µM: Homo sapiens, MGC-803, 72 h
Outline: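 CCK-8 read-out after 72 h drug exposure; 2000 cells/well, overnight pre-culture (37° C, 5% CO2); vehicle 1‰ DMSO. Media: PC3 F12; MGC-803/Jurkat 1640; MCF-7 DMEM high glucose; all +10% newborn bovine serum, 1% antibiotics.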

O=C(C[C@@H](CC1CCCC1)C(=O)N1CC2(CC2)C[C@H]1C(=O)Nc1cccnn1)NO [Example 66]
Anti-bacterial activity (MIC) ([1]; strain EFA 15-1): 4 µg/mL | Anti-bacterial activity (MIC) ([1]; strain EFA 15-2): 4 µg/mL | Anti-bacterial activity (MIC) ([1]; strain EFA 15-3): 2 µg/mL | Anti-bacterial activity (MIC) ([1]; strain EFA 15-4): 16 µg/mL | Anti-bacterial activity (MIC) ([1]; strain EFA 15-5): 16 µg/mL | Anti-bacterial activity (MIC) ([1]; strain EFA 15-6): 16 µg/mL | Anti-bacterial activity (MIC) ([1]; strain EFA 15-9): 16 µg/mL | Anti-bacterial activity (MIC) ([2]; strain EFM 15-1): 16 µg/mL | Anti-bacterial activity (MIC) ([2]; strain EFM 15-2): 16 µg/mL | Anti-bacterial activity (MIC) ([2]; strain EFM 15-3): 16 µg/mL | Anti-bacterial activity (MIC) ([2]; strain EFM 15-4): 1 µg/mL | Anti-bacterial activity (MIC) ([2]; strain EFM 15-5): 0.125 µg/mL | Anti-bacterial activity (MIC) ([2]; strain EFM 15-6): 0.5 µg/mL | Anti-bacterial activity (MIC), strain ECO+ 15-1 [3]: 16 µg/mL | Anti-bacterial activity (MIC), strain ECO+ 15-2 [3]: 32 µg/mL | Anti-bacterial activity (MIC), strain ECO+ 15-3 [3]: 16 µg/mL | Anti-bacterial activity (MIC), strain ECO+ 15-4 [3]: 16 µg/mL | Anti-bacterial activity (MIC), strain ECO− 15-1 [3]: 16 µg/mL | Anti-bacterial activity (MIC), strain ECO− 15-2 [3]: 16 µg/mL | Anti-bacterial activity (MIC), strain ECO− 15-3 [3]: 32 µg/mL | Anti-bacterial activity (MIC), strain ECO− 15-4 [3]: 8 µg/mL | Anti-bacterial activity (MIC) ([4]; strain BCA 14-1): 2 µg/mL | Anti-bacterial activity (MIC) ([4]; strain BCA 14-4): 2 µg/mL | Anti-bacterial activity (MIC) ([4]; strain BCA 14-5): 2 µg/mL | Anti-bacterial activity (MIC) ([4]; strain BCA 14-6): 2 µg/mL | Anti-bacterial activity (MIC) ([4]; strain BCA 14-7): 2 µg/mL | Anti-bacterial activity (MIC) ([4]; strain BCA 14-8): 2 µg/mL | Anti-bacterial activity (MIC) ([4]; strain BCA 14-10): 0.5 µg/mL | Anti-bacterial activity (MIC) ([5]; strain SPN 16-2): 0.25 µg/mL | Anti-bacterial activity (MIC) ([5]; strain SPN 16-4): 0.25 µg/mL | Anti-bacterial activity (MIC), strain MRSA 15-1 [6]: 0.5 µg/mL | Anti-bacterial activity (MIC), strain MRSA 15-2 [6]: 2 µg/mL | Anti-bacterial activity (MIC), strain MRSA 15-3 [6]: 0.5 µg/mL | Anti-bacterial activity (MIC), strain MRSA 15-4 [6]: 1 µg/mL | Anti-bacterial activity (MIC), strain MRSE 15-1 [7]: 0.25 µg/mL | Anti-bacterial activity (MIC), strain MRSE 15-2 [7]: 1 µg/mL | Anti-bacterial activity (MIC), strain MRSE 15-3 [7]: 1 µg/mL | Anti-bacterial activity (MIC), strain MRSE 15-7 [7]: 1 µg/mL | Anti-bacterial activity (MIC), strain MSSA 15-3 [8]: 1 µg/mL | Anti-bacterial activity (MIC), strain MSSA 15-4 [8]: 0.5 µg/mL | Anti-bacterial activity (MIC), strain MSSA 15-5 [8]: 0.5 µg/mL | Anti-bacterial activity (MIC), strain MSSA 15-6 [8]: 32 µg/mL | Anti-bacterial activity (MIC), strain MSSE 15-3 [9]: 0.06 µg/mL | Anti-bacterial activity (MIC), strain MSSE 15-4 [9]: 1 µg/mL | Anti-bacterial activity (MIC), strain MSSE 15-5 [9]: 1 µg/mL | Anti-bacterial activity (MIC), strain MSSE 15-6 [9]: 0.06 µg/mL | HCT116 inhibition rate/% ([10]; 30 µM): 75% | inhibition at 30 µM [11]: > 50% | Inhibition of proliferation, Lung cancer A549 ([11]; 72 hours, 30 µM): 56% | Inhibition of proliferation, Liver cancer BEL-7402 [12]: 74% | inhibition at 30 µM [13]: > 50% | Inhibition of proliferation, Gastric cancer MGC-803 ([13]; 72 hours, 30 µM): 60%

O=C(C[C@@H](CC1CCCC1)C(=O)N1CC2(CC2)C[C@H]1C(=O)Nc1ncccc1F)NO [Example 67]
Anti-bacterial activity (MIC) ([1]; strain EFA 15-1): 32 µg/mL | Anti-bacterial activity (MIC) ([1]; strain EFA 15-2): 32 µg/mL | Anti-bacterial activity (MIC) ([1]; strain EFA 15-3): 32 µg/mL | Anti-bacterial activity (MIC) ([1]; strain EFA 15-4): 32 µg/mL | Anti-bacterial activity (MIC) ([1]; strain EFA 15-5): 32 µg/mL | Anti-bacterial activity (MIC) ([1]; strain EFA 15-6): 32 µg/mL | Anti-bacterial activity (MIC) ([1]; strain EFA 15-9): 8 µg/mL | Anti-bacterial activity (MIC) ([2]; strain EFM 15-1): 32 µg/mL | Anti-bacterial activity (MIC) ([2]; strain EFM 15-2): > 32 µg/mL | Anti-bacterial activity (MIC) ([2]; strain EFM 15-3): > 32 µg/mL | Anti-bacterial activity (MIC) ([2]; strain EFM 15-4): 2 µg/mL | Anti-bacterial activity (MIC) ([2]; strain EFM 15-5): 0.25 µg/mL | Anti-bacterial activity (MIC) ([2]; strain EFM 15-6): 0.25 µg/mL | Anti-bacterial activity (MIC), strain ECO+ 15-1 [3]: 16 µg/mL | Anti-bacterial activity (MIC), strain ECO+ 15-2 [3]: 16 µg/mL | Anti-bacterial activity (MIC), strain ECO+ 15-3 [3]: 32 µg/mL | Anti-bacterial activity (MIC), strain ECO+ 15-4 [3]: 32 µg/mL | Anti-bacterial activity (MIC), strain ECO− 15-1 [3]: 32 µg/mL | Anti-bacterial activity (MIC), strain ECO− 15-2 [3]: 32 µg/mL | Anti-bacterial activity (MIC), strain ECO− 15-3 [3]: 32 µg/mL | Anti-bacterial activity (MIC), strain ECO− 15-4 [3]: 32 µg/mL | Anti-bacterial activity (MIC) ([4]; strain BCA 14-1): 2 µg/mL | Anti-bacterial activity (MIC) ([4]; strain BCA 14-4): 2 µg/mL | Anti-bacterial activity (MIC) ([4]; strain BCA 14-5): 2 µg/mL | Anti-bacterial activity (MIC) ([4]; strain BCA 14-6): 2 µg/mL | Anti-bacterial activity (MIC) ([4]; strain BCA 14-7): 2 µg/mL | Anti-bacterial activity (MIC) ([4]; strain BCA 14-8): 2 µg/mL | Anti-bacterial activity (MIC) ([4]; strain BCA 14-10): 0.5 µg/mL | Anti-bacterial activity (MIC) ([5]; strain SPN 16-2): 0.25 µg/mL | Anti-bacterial activity (MIC) ([5]; strain SPN 16-4): 0.25 µg/mL | Anti-bacterial activity (MIC), strain MRSA 15-1 [6]: 0.25 µg/mL | Anti-bacterial activity (MIC), strain MRSA 15-2 [6]: 0.5 µg/mL | Anti-bacterial activity (MIC), strain MRSA 15-3 [6]: 0.25 µg/mL | Anti-bacterial activity (MIC), strain MRSA 15-4 [6]: 0.5 µg/mL | Anti-bacterial activity (MIC), strain MRSE 15-1 [7]: 0.5 µg/mL | Anti-bacterial activity (MIC), strain MRSE 15-2 [7]: 0.5 µg/mL | Anti-bacterial activity (MIC), strain MRSE 15-3 [7]: 0.5 µg/mL | Anti-bacterial activity (MIC), strain MRSE 15-7 [7]: 0.5 µg/mL | Anti-bacterial activity (MIC), strain MSSA 15-3 [8]: 0.5 µg/mL | Anti-bacterial activity (MIC), strain MSSA 15-4 [8]: 0.125 µg/mL | Anti-bacterial activity (MIC), strain MSSA 15-5 [8]: 0.125 µg/mL | Anti-bacterial activity (MIC), strain MSSA 15-6 [8]: 32 µg/mL | Anti-bacterial activity (MIC), strain MSSE 15-3 [9]: 0.25 µg/mL | Anti-bacterial activity (MIC), strain MSSE 15-4 [9]: 0.5 µg/mL | Anti-bacterial activity (MIC), strain MSSE 15-5 [9]: 0.5 µg/mL | Anti-bacterial activity (MIC), strain MSSE 15-6 [9]: 0.125 µg/mL | inhibition at 30 µM ([10]; Table 5, read-out: Inhibition of proliferation, Colorectal cancer HCT116): ≥ 30% | inhibition at 30 µM ([10]; read-out: HCT116 inhibition rate/%): 44% | inhibition at 30 µM [11]: 36% | inhibition at 30 µM ([12]; Homo sapiens, Bel-7402, 72 h): > 50% | Inhibition of proliferation, Liver cancer BEL-7402 [12]: 57% | inhibition at 30 µM [13]: 39%
